{"source": "paper PMC9352670", "about": "(2022)", "key": {"[1]": {"system": "Dm-LS-1 (DNA, aptamer, HFNAP: side-chain on 5' nucleobase of each coding trinucleotide, positions 19,22,25,...,61 (codon key Figure 1B)) GAAAGCAGGACTGGAGATCCGCGCCGCTTTTATCCCTAGTCCCTTTTACCCTACTTCCCCTTACAGACCGAACTAGAGCTT", "assay": "microscale thermophoresis", "details": "5 mM KCl, 1 mM MgCl2, 1 mM CaCl2 added; HBS-P+ buffer, 25 °C"}, "[2]": {"system": "Dm-HS-4 (DNA, aptamer, HFNAP: side-chain on 5' nucleobase of each coding trinucleotide, positions 19,22,25,...,61 (codon key Figure 1B)) GAAAGCAGGACTGGAGATCGATTCTGGTGCTGTTGATCTCCGCCATTGTGCTCCTACCCTTCGCAGACCGAACTAGAGCTT", "assay": "microscale thermophoresis", "details": "5 mM KCl, 1 mM MgCl2, 1 mM CaCl2 added; HBS-P+ buffer, 25 °C"}, "[3]": {"system": "Dm-HS-6 (DNA, aptamer, HFNAP: side-chain on 5' nucleobase of each coding trinucleotide, positions 19,22,25,...,61 (codon key Figure 1B)) GAAAGCAGGACTGGAGATTGGTAGTAACTGCTGTCCTGCTAATCATGCCGTTCACGCTGACCTCAGACCGAACTAGAGCTT", "assay": "microscale thermophoresis", "details": "5 mM KCl, 1 mM MgCl2, 1 mM CaCl2 added; HBS-P+ buffer, 25 °C"}, "[4]": {"system": "Dm-CVAE-without-selection-1 (DNA, aptamer, HFNAP: side-chain on 5' nucleobase of each coding trinucleotide, positions 19,22,25,...,61 (codon key Figure 1B)) GAAAGCAGGACTGGAGATCCGCATCGCTTATGCTGATCTTTTCCATATTGCCTTTCCTCCTACCAGACCGAACTAGAGCTT", "assay": "microscale thermophoresis", "details": "5 mM KCl, 1 mM MgCl2, 1 mM CaCl2 added; HBS-P+ buffer, 25 °C"}, "[5]": {"system": "Dm-CCS-1 (DNA, aptamer, HFNAP: side-chain on 5' nucleobase of each coding trinucleotide, positions 19,22,25,...,61 (codon key Figure 1B)) GAAAGCAGGACTGGAGATCCTTAATGGCAGCTCCAGCCCTAACCCTGCTGCTGCCTCTGCTGTCAGACCGAACTAGAGCTT", "assay": "microscale thermophoresis", "details": "5 mM KCl, 1 mM MgCl2, 1 mM CaCl2 added; HBS-P+ buffer, 25 °C"}, "[6]": {"system": "Dm-CCS-5 (DNA, aptamer, HFNAP: side-chain on 5' nucleobase of each coding trinucleotide, positions 19,22,25,...,61 (codon key Figure 1B)) GAAAGCAGGACTGGAGATTTCTACTATCTCCAGCCGTTCCACCACTGATGCCCTTAGTATCCTCAGACCGAACTAGAGCTT", "assay": "microscale thermophoresis", "details": "5 mM KCl, 1 mM MgCl2, 1 mM CaCl2 added; HBS-P+ buffer, 25 °C"}, "[7]": {"system": "Dm-reference-based-random-after-selection-5 (DNA, other, HFNAP: side-chain on 5' nucleobase of each coding trinucleotide, positions 19,22,25,...,61 (codon key Figure 1B)) GAAAGCAGGACTGGAGATCATTTCCTCCCTTATCGATAATCTCCTTTTTTATACTGCTTTTTCCAGACCGAACTAGAGCTT", "assay": "microscale thermophoresis", "details": "5 mM KCl, 1 mM MgCl2, 1 mM CaCl2 added; HBS-P+ buffer, 25 °C"}, "[8]": {"system": "Dm-HS-1 ∆ s.c. (DNA, aptamer, none (no side-chains)) GAAAGCAGGACTGGAGATCGATTCTGGTGCTGTTGATCTCCGCCATTGTGCTCCTACCCTTCACAGACCGAACTAGAGCTT", "assay": "microscale thermophoresis", "details": "5 mM KCl, 1 mM MgCl2, 1 mM CaCl2 added; HBS-P+ buffer, 25 °C"}, "[9]": {"system": "Dm-HS-2 ∆ s.c. (DNA, aptamer, none (no side-chains)) GAAAGCAGGACTGGAGATCTATGGTCGCATCGTTGACCCTTGTCCTGCCCCTGTCTCTCTCAACAGACCGAACTAGAGCTT", "assay": "microscale thermophoresis", "details": "5 mM KCl, 1 mM MgCl2, 1 mM CaCl2 added; HBS-P+ buffer, 25 °C"}, "[10]": {"system": "Dm-HS-8 ∆ s.c. (DNA, aptamer, none (no side-chains)) GAAAGCAGGACTGGAGATCGATTGCAGTTACGTCTCCCCTGCCCACCTTATTGCCATTCATAACAGACCGAACTAGAGCTT", "assay": "microscale thermophoresis", "details": "5 mM KCl, 1 mM MgCl2, 1 mM CaCl2 added; HBS-P+ buffer, 25 °C"}, "[11]": {"system": "Dm-HS-1 TGC ∆ s.c. (DNA, aptamer, no side-chain at 28 and 49 (codons 4 and 11 TGC, alcohol 2x); others as HFNAP: fluorophenyl at 19; allylamine at 22, 25, 37; alcohol at 34; phenol at 31, 46; cyclopentyl at 40; cyclopropyl at 43, 58; imidazole at 52, 55, 61) GAAAGCAGGACTGGAGATCGATTCTGGTGCTGTTGATCTCCGCCATTGTGCTCCTACCCTTCACAGACCGAACTAGAGCTT", "assay": "microscale thermophoresis", "details": "5 mM KCl, 1 mM MgCl2, 1 mM CaCl2 added to HBS-P+; HBS-P+ buffer, 25 °C"}, "[12]": {"system": "Dm-HS-1 TCT ∆ s.c. (DNA, aptamer, no side-chain at 37 (codon 7 TCT); others as HFNAP: fluorophenyl at 19; allylamine at 22, 25; alcohol at 28, 34, 49; phenol at 31, 46; cyclopentyl at 40; cyclopropyl at 43, 58; imidazole at 52, 55, 61) GAAAGCAGGACTGGAGATCGATTCTGGTGCTGTTGATCTCCGCCATTGTGCTCCTACCCTTCACAGACCGAACTAGAGCTT", "assay": "microscale thermophoresis", "details": "5 mM KCl, 1 mM MgCl2, 1 mM CaCl2 added to HBS-P+; HBS-P+ buffer, 25 °C"}, "[13]": {"system": "Dm-HS-1 TAC ∆ s.c. (DNA, aptamer, no side-chain at 55 (codon 13 TAC); others as HFNAP: fluorophenyl at 19; allylamine at 22, 25, 37; alcohol at 28, 34, 49; phenol at 31, 46; cyclopentyl at 40; cyclopropyl at 43, 58; imidazole at 52, 61) GAAAGCAGGACTGGAGATCGATTCTGGTGCTGTTGATCTCCGCCATTGTGCTCCTACCCTTCACAGACCGAACTAGAGCTT", "assay": "microscale thermophoresis", "details": "5 mM KCl, 1 mM MgCl2, 1 mM CaCl2 added to HBS-P+; HBS-P+ buffer, 25 °C"}, "[14]": {"system": "Dm-HS-1 (DNA, aptamer, HFNAP, side-chains on nucleobases: fluorophenyl at 19; allylamine at 22, 25, 37; alcohol at 28, 34, 49; phenol at 31, 46; cyclopentyl at 40; cyclopropyl at 43, 58; imidazole at 52, 55, 61) GAAAGCAGGACTGGAGATCGATTCTGGTGCTGTTGATCTCCGCCATTGTGCTCCTACCCTTCACAGACCGAACTAGAGCTT", "assay": "gel filtration, radiolabelled ligand", "details": "140 mM NaCl, 5 mM KCl, 1 mM MgCl2, 1 mM CaCl2; 20 mM Tris-HCl pH 7.4, 0.05% Tween 20, 25 °C; [3H]-daunomycin mixed with unlabelled; control sequence subtracted"}}}
{"smiles": "COc1cccc2c1C(=O)c1c(O)c3c(c(O)c1C2=O)C[C@@](O)(C(C)=O)C[C@@H]3O[C@H]1C[C@H](N)[C@H](O)[C@H](C)O1", "values": [{"measurement": "Kd", "setting": "[1]", "value": "1.11 ± 0.06", "unit": "µM"}, {"measurement": "Kd", "setting": "[2]", "value": "0.00205 ± 0.00065", "unit": "µM"}, {"measurement": "Kd", "setting": "[3]", "value": "0.02686 ± 0.0042", "unit": "µM"}, {"measurement": "Kd", "setting": "[4]", "value": "0.0132 ± 0.0032", "unit": "µM"}, {"measurement": "Kd", "setting": "[5]", "value": "0.0167 ± 0.006", "unit": "µM"}, {"measurement": "Kd", "setting": "[6]", "value": "0.0104 ± 0.0015", "unit": "µM"}, {"measurement": "Kd", "setting": "[7]", "value": "119.7 ± 9.3", "unit": "µM"}, {"measurement": "Kd ∆ side-chains", "setting": "[8]", "value": "2.61 ± 0.19", "unit": "µM"}, {"measurement": "Kd ∆ side-chains", "setting": "[9]", "value": "1.70 ± 0.17", "unit": "µM"}, {"measurement": "Kd ∆ side-chains", "setting": "[10]", "value": "4.84 ± 0.26", "unit": "µM"}, {"measurement": "Kd", "setting": "[11]", "value": "0.0203 ± 0.0044", "unit": "µM"}, {"measurement": "Kd", "setting": "[12]", "value": "0.0129 ± 0.0015", "unit": "µM"}, {"measurement": "Kd", "setting": "[13]", "value": "0.0217 ± 0.0021", "unit": "µM"}, {"measurement": "Kd", "setting": "[14]", "value": "0.0126 ± 0.0035", "unit": "µM"}]}
